{"source": "patent US20260262643A1", "about": "“HERBICIDAL BENZOXAZINES” (FMC CORPORATION, priority 2022, published 2026)", "key": {"ryegrass, Italian [1]": {"test_system": "ryegrass, Italian", "assay": "Test C postemergence", "assay_type": "in vivo, Lolium multiflorum", "settings": "125 g ai/ha, postemergence, 10 days; 0 to 100 scale, 0 no effect, 100 complete control", "procedure,_shortened": "(§1)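 Seeds sown in loam soil–sand blend received a directed preemergence soil spray of test chemical in non-phytotoxic solvent with surfactant; postemergence plants (2–10 cm, one- to two-leaf stage) were sprayed with the same formulation. Greenhouse-held 10 days, then visually rated for injury versus untreated controls, 0 (no effect) to 100 (complete control).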"}, "green foxtail [2]": {"test_system": "green foxtail", "assay": "Test C preemergence", "assay_type": "in vivo, Setaria viridis", "settings": "preemergence, 0 to 100 scale (0 no effect, 100 complete control)", "procedure,_shortened": "as §1"}, "barnyardgrass [3]": {"test_system": "barnyardgrass", "assay": "Test D flooded paddy test", "assay_type": "in vivo, Echinochloa crus-galli", "settings": "250 g ai/ha, applied to paddy water, visual rating after 13 to 14 days, scale 0 to 100 (0 no effect, 100 complete control)", "procedure,_shortened": "(§2)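 At the 2-leaf stage, floodwater 3 cm deep received the test compound; that depth persisted throughout. Plants scored visually 13 to 14 days on, 0 (no effect) to 100 (complete control), dash indicating no result.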"}, "ragweed [4]": {"test_system": "ragweed", "assay": "Test C preemergence", "assay_type": "in vivo, Ambrosia artemisiifolia", "settings": "preemergence, 0 to 100 scale (0 no effect, 100 complete control)", "procedure,_shortened": "as §1"}, "oat, wild [5]": {"test_system": "oat, wild", "assay": "Test C preemergence", "assay_type": "in vivo, Avena fatua", "settings": "preemergence, 0 to 100 scale (0 no effect, 100 complete control)", "procedure,_shortened": "as §1"}, "kochia [6]": {"test_system": "kochia", "assay": "Test C preemergence", "assay_type": "in vivo, Bassia scoparia", "settings": "preemergence, 0 to 100 scale (0 no effect, 100 complete control)", "procedure,_shortened": "as §1"}, "kochia [7]": {"test_system": "kochia", "assay": "Test C postemergence", "assay_type": "in vivo, Bassia scoparia", "settings": "125 g ai/ha, postemergence, 10 days; 0 to 100 scale, 0 no effect, 100 complete control", "procedure,_shortened": "as §1"}, "corn [8]": {"test_system": "corn", "assay": "Test C postemergence", "assay_type": "in vivo, Zea mays", "settings": "10 days", "procedure,_shortened": "as §1"}, "ragweed [9]": {"test_system": "ragweed", "assay": "Test C postemergence", "assay_type": "in vivo, Ambrosia artemisiifolia", "settings": "125 g ai/ha, postemergence, 10 days; 0 to 100 scale, 0 no effect, 100 complete control", "procedure,_shortened": "as §1"}, "wheat [10]": {"test_system": "wheat", "assay": "Test C preemergence", "assay_type": "in vivo, Triticum aestivum", "settings": "preemergence, 0 to 100 scale (0 no effect, 100 complete control)", "procedure,_shortened": "as §1"}, "oat, wild [11]": {"test_system": "oat, wild", "assay": "Test C postemergence", "assay_type": "in vivo, Avena fatua", "settings": "125 g ai/ha, postemergence, 10 days; 0 to 100 scale, 0 no effect, 100 complete control", "procedure,_shortened": "as §1"}, "soybean [12]": {"test_system": "soybean", "assay": "Test C preemergence", "assay_type": "in vivo, Glycine max", "settings": "preemergence, 0 to 100 scale (0 no effect, 100 complete control)", "procedure,_shortened": "as §1"}, "soybean [13]": {"test_system": "soybean", "assay": "Test C postemergence", "assay_type": "in vivo, Glycine max", "settings": "125 g ai/ha, postemergence, 10 days; 0 to 100 scale, 0 no effect, 100 complete control", "procedure,_shortened": "as §1"}, "ducksalad": {"test_system": "ducksalad", "assay": "Test D flooded paddy test", "assay_type": "in vivo, Heteranthera limosa", "settings": "250 g ai/ha, applied to paddy water, visual rating after 13 to 14 days, scale 0 to 100 (0 no effect, 100 complete control)", "procedure,_shortened": "as §2"}, "blackgrass [14]": {"test_system": "blackgrass", "assay": "Test C postemergence", "assay_type": "in vivo, Alopecurus myosuroides", "settings": "10 days", "procedure,_shortened": "as §1"}, "sedge, umbrella": {"test_system": "sedge, umbrella", "assay": "Test D flooded paddy test", "assay_type": "in vivo, Cyperus difformis", "settings": "250 g ai/ha, applied to paddy water, visual rating after 13 to 14 days, scale 0 to 100 (0 no effect, 100 complete control)", "procedure,_shortened": "as §2"}, "blackgrass [15]": {"test_system": "blackgrass", "assay": "Test C preemergence", "assay_type": "in vivo, Alopecurus myosuroides", "settings": "0 to 100 scale (0 no effect, 100 complete control)", "procedure,_shortened": "as §1"}, "pigweed, palmer [16]": {"test_system": "pigweed, palmer", "assay": "Test C postemergence", "assay_type": "in vivo, Amaranthus palmeri", "settings": "125 g ai/ha, postemergence, 10 days; 0 to 100 scale, 0 no effect, 100 complete control", "procedure,_shortened": "as §1"}, "horseweed": {"test_system": "horseweed", "assay": "Test C postemergence", "assay_type": "in vivo, Erigeron canadensis", "settings": "10 days", "procedure,_shortened": "as §1"}, "rice": {"test_system": "rice", "assay": "Test D flooded paddy test", "assay_type": "in vivo, Oryza sativa", "settings": "250 g ai/ha, applied to paddy water, visual rating after 13 to 14 days, scale 0 to 100 (0 no effect, 100 complete control)", "procedure,_shortened": "as §2"}, "barnyardgrass [17]": {"test_system": "barnyardgrass", "assay": "Test C preemergence", "assay_type": "in vivo, Echinochloa crusgalli", "settings": "0 to 100 scale (0 no effect, 100 complete control)", "procedure,_shortened": "as §1"}, "barnyardgrass [18]": {"test_system": "barnyardgrass", "assay": "Test C postemergence", "assay_type": "in vivo, Echinochloa crusgalli", "settings": "10 days", "procedure,_shortened": "as §1"}, "green foxtail [19]": {"test_system": "green foxtail", "assay": "Test C postemergence", "assay_type": "in vivo, Setaria viridis", "settings": "10 days", "procedure,_shortened": "as §1"}, "galium": {"test_system": "galium", "assay": "Test C postemergence", "assay_type": "in vivo, Galium aparine", "settings": "10 days", "procedure,_shortened": "as §1"}, "corn [20]": {"test_system": "corn", "assay": "Test C preemergence", "assay_type": "in vivo, Zea mays", "settings": "500 g ai/ha, preemergence; 0 to 100 scale (0 no effect, 100 complete control)", "procedure,_shortened": "as §1"}, "pigweed, palmer [21]": {"test_system": "pigweed, palmer", "assay": "Test C preemergence", "assay_type": "in vivo, Amaranthus palmeri", "settings": "preemergence, 0 to 100 scale (0 no effect, 100 complete control)", "procedure,_shortened": "as §1"}, "wheat [22]": {"test_system": "wheat", "assay": "Test C postemergence", "assay_type": "in vivo, Triticum aestivum", "settings": "125 g ai/ha, postemergence, 10 days; 0 to 100 scale, 0 no effect, 100 complete control", "procedure,_shortened": "as §1"}, "ryegrass, Italian [23]": {"test_system": "ryegrass, Italian", "assay": "Test C preemergence", "assay_type": "in vivo, Lolium multiflorum", "settings": "preemergence, 0 to 100 scale (0 no effect, 100 complete control)", "procedure,_shortened": "as §1"}, "[24]": {"settings": "125 g ai/ha, postemergence, 0 to 100 scale, 0 no effect, 100 complete control"}, "[25]": {"settings": "Postemergence, 500 g ai/ha, visual 0 to 100 scale (0 no effect, 100 complete control)"}, "[26]": {"settings": "Preemergence, 500 g ai/ha, visual rating after 10 days"}, "[27]": {"settings": "Test C, preemergence, 125 g ai/ha"}}}
{"smiles": "Cc1cccc2c1O[C@@H](C)CN2C(=O)c1cccc(-n2cnc(C(C)(C)O)n2)c1", "note": "[Compound 278]", "values": [{"measurement": "Plant response rating, Ryegrass, Italian", "setting": "ryegrass, Italian [1]", "result": 80}, {"measurement": "Foxtail, Green plant response rating", "setting": "green foxtail [2]; 500 g ai/ha", "result": 100}, {"measurement": "Foxtail, Green plant response rating", "setting": "green foxtail [2]; Test C, 125 g ai/ha", "result": 100}, {"measurement": "Plant response rating, Barnyardgrass (Flood)", "setting": "barnyardgrass [3]", "result": 45}, {"measurement": "Ragweed plant response rating", "setting": "ragweed [4]; 500 g ai/ha", "result": 80}, {"measurement": "Ragweed plant response rating", "setting": "ragweed [4]; Test C, 125 g ai/ha", "result": 70}, {"measurement": "Oat, Wild plant response rating", "setting": "oat, wild [5]; 500 g ai/ha", "result": 90}, {"measurement": "Oat, Wild plant response rating", "setting": "oat, wild [5]; Test C, 125 g ai/ha", "result": 80}, {"measurement": "Kochia plant response rating", "setting": "kochia [6]; 500 g ai/ha", "result": 100}, {"measurement": "Kochia plant response rating", "setting": "kochia [6]; Test C, 125 g ai/ha", "result": 90}, {"measurement": "Plant response rating, Kochia", "setting": "kochia [7]", "result": 80}, {"measurement": "Plant response rating, Corn", "setting": "corn [8]; [24]", "result": 50}, {"measurement": "Plant response rating, Corn", "setting": "corn [8]; [25]", "result": 90}, {"measurement": "Plant response rating, Ragweed", "setting": "ragweed [9]", "result": 70}, {"measurement": "Wheat plant response rating", "setting": "wheat [10]; 500 g ai/ha", "result": 100}, {"measurement": "Wheat plant response rating", "setting": "wheat [10]; Test C, 125 g ai/ha", "result": 50}, {"measurement": "Plant response rating, Oat, Wild", "setting": "oat, wild [11]", "result": 80}, {"measurement": "Soybean plant response rating", "setting": "soybean [12]; 500 g ai/ha", "result": 100}, {"measurement": "Soybean plant response rating", "setting": "soybean [12]; Test C, 125 g ai/ha", "result": 90}, {"measurement": "Plant response rating, Soybean", "setting": "soybean [13]", "result": 100}, {"measurement": "Plant response rating, Ducksalad (Flood)", "setting": "ducksalad", "result": 100}, {"measurement": "Plant response rating, Blackgrass", "setting": "blackgrass [14]; [24]", "result": 90}, {"measurement": "Plant response rating, Blackgrass", "setting": "blackgrass [14]; [25]", "result": 90}, {"measurement": "Plant response rating, Sedge, Umbrella (Flood)", "setting": "sedge, umbrella", "result": 100}, {"measurement": "Plant response rating, Blackgrass", "setting": "blackgrass [15]; [26]", "result": 90}, {"measurement": "Blackgrass plant response rating", "setting": "blackgrass [15]; [27]", "result": 90}, {"measurement": "Plant response rating, Pigweed, Palmer", "setting": "pigweed, palmer [16]", "result": 50}, {"measurement": "Plant response rating, Horseweed", "setting": "horseweed; [24]", "result": 0}, {"measurement": "Plant response rating, Horseweed", "setting": "horseweed; [25]", "result": 50}, {"measurement": "Plant response rating, Rice (Flood)", "setting": "rice", "result": 15}, {"measurement": "Plant response rating, Barnyardgrass", "setting": "barnyardgrass [17]; [26]", "result": 100}, {"measurement": "Barnyardgrass plant response rating", "setting": "barnyardgrass [17]; [27]", "result": 100}, {"measurement": "Plant response rating, Barnyardgrass", "setting": "barnyardgrass [18]; [24]", "result": 50}, {"measurement": "Plant response rating, Barnyardgrass", "setting": "barnyardgrass [18]; [25]", "result": 90}, {"measurement": "Plant response rating, Foxtail, Green", "setting": "green foxtail [19]; [24]", "result": 50}, {"measurement": "Plant response rating, Foxtail, Green", "setting": "green foxtail [19]; [25]", "result": 90}, {"measurement": "Plant response rating, Galium", "setting": "galium; [24]", "result": 100}, {"measurement": "Plant response rating, Galium", "setting": "galium; [25]", "result": 100}, {"measurement": "Corn plant response rating", "setting": "corn [20]", "result": 80}, {"measurement": "Pigweed, Palmer plant response rating", "setting": "pigweed, palmer [21]; 500 g ai/ha", "result": 100}, {"measurement": "Pigweed, Palmer plant response rating", "setting": "pigweed, palmer [21]; Test C, 125 g ai/ha", "result": 100}, {"measurement": "Plant response rating, Wheat", "setting": "wheat [22]", "result": 70}, {"measurement": "Ryegrass, Italian plant response rating", "setting": "ryegrass, Italian [23]; 500 g ai/ha", "result": 100}, {"measurement": "Ryegrass, Italian plant response rating", "setting": "ryegrass, Italian [23]; Test C, 125 g ai/ha", "result": 80}]}
